A short description of series [1]: Toxicity in cyclophosphamide - induced Sprague-Dawley rat model of partial androgen deficiency assessed as effect on Sertoli cells arrangement at 50 to 100 mg/kg by HE staining based histopathological analysis. It is filed as organism-based. The settings on record: in vivo.
Series [2] is described as follows: Toxicity in cyclophosphamide-induced Sprague-Dawley rat model of partial androgen deficiency assessed as decrease in body weight at 50 to 100 mg/kg, po qd administered for 4 weeks and measured every 3 days. It is filed as organism-based. The note with it: in vivo.
Series [3] relates to Rattus norvegicus. The series is described as follows: Anti late-onset hypogonadism activity in cyclophosphamide-induced Sprague-Dawley rat model of partial androgen deficiency assessed as weight of seminal vesicles at 100 mg/kg, po qd administered for 4 weeks (reference value: 1.33 +/- 0.26 g). The series is classed as functional.
The test system of series [4] is Rattus norvegicus. The series is described as follows: Anti late-onset hypogonadism activity in cyclophosphamide-induced Sprague-Dawley rat model of partial androgen deficiency assessed as weight of seminal vesicles at 50 mg/kg, po qd administered for 4 weeks (reference value: 1.33 +/- 0.26 g). The series is classed as functional.
For series [5], the system named is Rattus norvegicus. The experiment in a line: Anti late-onset hypogonadism activity in cyclophosphamide-induced Sprague-Dawley rat model of partial androgen deficiency assessed as weight of testis at 50 mg/kg, po qd administered for 4 weeks (reference value: 1.47 +/- 0.13 g). The series is classed as functional.
For series [6], the system named is TM3. The experiment in a line: Induction of autophagy in mouse TM3 cells assessed as phosphorylation of AMPK at 10 to 100 uM by Western blot analysis. The series is classed as functional, cell-based. (Immunoblotting shows a protein as a band on a membrane.)
The subject of series [7] is TM3. The experiment in a line: Induction of autophagy in mouse TM3 cells assessed as dephosphorylation of mTOR at 10 to 100 uM by Western blot analysis. It is filed as functional, cell-based.
In series [8] the test system is TM3. The series is described as follows: Induction of autophagy in mouse TM3 cells assessed as increase in ATG5 protein level at 10 to 100 uM by Western blot analysis. It is filed as functional, cell-based.
A short description of series [9]: AUC (0 to t) in Sprague-Dawley rat plasma at 50 mg/kg, po up to 12 hrs by LC/MS analysis. Set-up: dose 50 mg/kg, time < 12 hr, route oral. It is filed as ADME, organism-based.
Series [10] is described as follows: Cytotoxicity against human HAF cells assessed as reduction in cell viability measured after 24 hrs by sulforhodamine B assay. The series is classed as cell-based.
Series [11] can be described thus: Cytotoxicity against mouse NIH/3T3 cells assessed as reduction in cell viability measured after 24 hrs by sulforhodamine B assay. The series is classed as cell-based, NIH3T3.
A short description of series [12]: Toxicity in cyclophosphamide - induced Sprague-Dawley rat model of partial androgen deficiency assessed as effect on liver at 50 to 100 mg/kg by HE staining based histopathological analysis. It is filed as organism-based. The settings on record: in vivo.
Series [13] can be described thus: Toxicity in cyclophosphamide - induced Sprague-Dawley rat model of partial androgen deficiency assessed as sperm motility at 100 mg/kg by semen analysis (reference value: 88.3 +/- 7.3 %). The series is classed as organism-based. The note with it: in vivo.
A short description of series [14]: Half-life in Sprague-Dawley rat plasma at 5 mg/kg, iv up to 5 hrs by LC/MS analysis. It is filed as ADME, organism-based.
Series [15] can be described thus: AUC (0 to t) in Sprague-Dawley rat plasma at 5 mg/kg, iv up to 5 hrs by LC/MS analysis. It is filed as ADME, organism-based. Further details: time < 5 hr, dose 5 mg/kg, route intravenous.
Series [16] in a line: AUC (0 to infinity) in Sprague-Dawley rat plasma at 5 mg/kg, iv by LC/MS analysis. It is filed as ADME, organism-based. Set-up: dose 5 mg/kg, route intravenous, time infinity.
Series [17] is described as follows: Volume of distribution in Sprague-Dawley rat plasma at 5 mg/kg, iv up to 5 hrs by LC/MS analysis. The series is classed as ADME, organism-based.
A short description of series [18]: Mean residence time in Sprague-Dawley rat at 50 mg/kg, po by LC/MS analysis. The series is classed as ADME, organism-based. The note with it: in vivo.
A short description of series [19]: Mean residence time in Sprague-Dawley rat at 5 mg/kg, iv by LC/MS analysis. It is filed as ADME, organism-based. The settings on record: in vivo.
Series [20] has as its system TM3. The experiment in a line: Induction of autophagy in mouse TM3 cells assessed as increase in LC3 protein level at 10 to 100 uM after 24 hrs by DAPI staining based confocal microscopic method. It is filed as functional, cell-based.
Series [21] deals with TM3. The series is described as follows: Induction of testosterone production in mouse TM3 cells assessed as increase in 3beta-HSD protein expression level after 24 hrs by Western blot analysis. The series is classed as functional, cell-based.

Active and inactive are the calls of the source.

In the case of `CNC(=O)c1cc2c(cc1OC)[C@@]1(C)Cc3cnc(C)nc3C(C)(C)C1CC2` (mixture of isomers), the Activity result in [1] is listed as “Toxic”; in series [2], “Non-Toxic”; with Rattus norvegicus [3], 1.68 g; with Rattus norvegicus [4] it was 1.53 g; in the series with Rattus norvegicus [5], 1.54 g; in series [12], “Non-Toxic”. Further, the results for the Activity (in [13]; in the series on TM3 [21]) were 94.6% and “Dose-dependent effect”, respectively. The result with TM3 [6], in the series with TM3 [7], in the series with TM3 [8] and in the series on TM3 [20] was Active. Besides, the exposure AUC(0-t) at 12 h in [9] was 3050 ng·h/mL. Besides, the CC50 at 24 h in [10] and in series [11] was greater than 200 µM each time. Further, the half-life in series [14] is 455 min. In series [15], this compound had an exposure AUC(0-t) at 5 h of 453 ng·h/mL. Also, the AUC(0-inf) in series [16] was found to be 551 ng·h/mL. The compound further displayed a Vd in series [17] of 103 L/kg. For the same compound, the mean residence time MRT in [18] stood at 7.76 h; in [19] it was 9.92 h.

Broadly, the AUC(0-t) is the area under the concentration-time curve up to a stated or last time point. A lower AUC(0-t) goes with less exposure. For orientation: CC50 means the concentration that lowers cell viability or growth by half. By half-life is commonly meant the time needed for the level to fall by half in the phase considered. High values mean slow loss, low ones fast loss. The AUC(0-inf) is the area under the concentration-time curve extrapolated to infinity. For orientation: Vd means the apparent volume that relates the amount in the body to the concentration in plasma or blood. A lower Vd goes with confinement near the circulation. A word on the MRT: it is the average time that molecules of a dose stay in the body.

The record behind these values is ChEMBL document CHEMBL4350974, “Synthesis and biological evaluation of methylpyrimidine-fused tricyclic diterpene analogs as novel oral anti-late-onset hypogonadism agents” (Eur J Med Chem, 2019).
